Publication PMC5738443, “Peptide aptamer-modified single-walled carbon nanotube-based transistors for high-performance biosensors” (Scientific Reports, 2017)
Residues, ends and D or L forms follow the SMILES beside them.

Tests used:
Cathepsin E (CatE) [1] = molecular target: T1, Cathepsin E (CatE) (Homo sapiens, UniProt P14091); assay: SPR analysis (Biacore X100) of peptide aptamer binding to Cathepsin E; conditions: Biacore X100, CM5 chip, aptamer immobilized via C-terminal biotin-streptavidin, 1000 RU; single-cycle, CatE 858.37-1.37 ng/mL; steady-state affinity; read-out: dissociation constant (Kd)
T1 construct: purchased BioVision, Inc. (CA, USA)
T1 sequence (P14091 54-396): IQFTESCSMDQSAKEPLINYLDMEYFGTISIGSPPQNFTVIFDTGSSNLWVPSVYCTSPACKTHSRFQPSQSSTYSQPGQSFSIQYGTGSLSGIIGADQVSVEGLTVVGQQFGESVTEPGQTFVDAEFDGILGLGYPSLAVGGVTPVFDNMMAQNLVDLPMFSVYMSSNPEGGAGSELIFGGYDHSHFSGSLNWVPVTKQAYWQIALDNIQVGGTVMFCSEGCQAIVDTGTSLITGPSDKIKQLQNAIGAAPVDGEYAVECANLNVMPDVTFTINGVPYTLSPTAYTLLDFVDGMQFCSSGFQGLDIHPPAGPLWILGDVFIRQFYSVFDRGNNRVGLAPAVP
Text: CatE is composed of an in vitro-selected peptide aptamer (24 amino acids comprising two peptide blocks of 12- and 8-amino acids paired by a 4-amino acid linker) and a short alpha-strand peptide scaffold (7-amino acids). A Biacore X100 instrument was used to characterize the binding features of the peptide aptamer to CatE. A free N-terminal end of the peptide aptamer is necessary for its correct folding as a basis for the formation of the binding complex with the target. Therefore, the C-terminal end of the peptide aptamer with biotin-streptavidin chemistry was immobilized onto a CM5 sensor chip, and then CatE was injected as the analyte across this surface for interaction with the peptide aptamer. […] The dissociation constant (Kd) for the CatE was calculated as 0.954 ± 0.067 nM.
Figure 3 Peptide aptamer characterization. […] The data for the steady-state affinity binding plot were calculated from the end of the association phases against the analyte concentration. […]
A novel peptide aptamer that specifically recognizes CatE was engineered via systemic in vitro evolution. […] A steady-state affinity binding plot was calculated from the end of the association phases against the analyte concentration.

Cathepsin E (CatE) [2] = molecular target: T1, Cathepsin E (CatE); assay: CatE detection in PBS with peptide aptamer-modified liquid-gated SWCNT FET; type: binding; conditions: aptamer on SWCNT FET via PBASE; CatE 0.1 to 1 ng/mL in 1× PBS pH 10, 10 min, 25 °C; measured in 0.0005× PBS pH 4, -0.6 V; read-out: Kd (Langmuir isotherm fit of FET response)
Description: The peptide aptamer was immobilized onto the SWCNT channel via the PBASE linker prior to the capture of CatE. Next, the sensor was exposed to 0.0005× PBS pH 4 for electrical measurements. […] The transfer curve of the SWCNT FET initially shifted toward the negative bias direction after the immobilization of the peptide aptamer. With increasing CatE concentrations from 0.1 to 0.6 ng/mL, the curve further shifted toward the same direction. This phenomenon is attributed to the positively charged CatE molecules at PBS pH 4 (the isoelectric point of CatE is 4.69) inducing the gradual reduction of hole carriers in the SWCNT channel via a field effect. At concentrations greater than this concentration, the shift of the transfer curve is no longer observed because all peptide aptamer probe molecules are occupied by CatE molecules. The relative decrease in the “on” current (∆I/∆Imax), where ∆Imax represents the decrease in “on” current at a saturation level due to the interaction between CatE and peptide aptamer-modified SWCNT FETs, at a top liquid-gated voltage of −0.6 V was plotted as a function of CatE concentration, as shown in Fig. 5b. […]
We measured the transfer characteristics of the fabricated sensor using a top liquid-gated scheme in 0.0005× PBS pH 4. […]

CC[C@H](C)[C@H](NC(=O)CNC(=O)CNC(=O)[C@H](CS)NC(=O)[C@@H](N)CO)C(=O)N[C@H](C(=O)N[C@H](C(=O)N[C@H](C(=O)N[C@@H](CO)C(=O)N[C@@H](CS)C(=O)N[C@H](C(=O)N[C@@H](C)C(=O)N[C@H](C(=O)N[C@H](C(=O)N[C@@H](CO)C(=O)N[C@@H](CC(C)C)C(=O)N[C@H](C(=O)N1CCC[C@H]1C(=O)NCC(=O)N[C@@H](CCCNC(=N)N)C(=O)N[C@H](C(=O)NCC(=O)N[C@@H](CS)C(=O)N[C@H](C(=O)N[C@@H](CCCNC(=N)N)C(=O)N[C@@H](C)C(=O)N[C@@H](CCCCN)C(=O)N[C@@H](C)C(=O)N[C@@H](C)C(=O)N[C@@H](C)C(=O)N[C@@H](CCCCN)C(=O)O)[C@@H](C)CC)[C@@H](C)CC)[C@@H](C)CC)[C@@H](C)CC)C(C)C)[C@@H](C)CC)[C@@H](C)CC)[C@@H](C)CC)[C@@H](C)CC [peptide aptamer] (H-SCGGIIIISCIAVISLIPGRIGCIRAKAAAK-OH)
Kd (Cathepsin E (CatE) [1]): 0.954 nM
Kd (Cathepsin E (CatE) [2]): 2.77 pM
